# Tested on: HIV
# Test: HIV replication in lymphocyte cultures (infected with purified virus, or coculture of AIDS patients' and normal lymphocytes), reverse transcriptase activity in supernatant
# Assay type: cell-based
# Conditions: DAH treatment 72 h (J0 to J3), RT followed 22 days; dose-dependent; 0,5-2 mM
# Source text: Cette inhibition est dose-dépendante. Les essais ont d'abord porté sur des lymphoytes de donneurs sains (Figures 1 et 2). On a pu mettre en évidence cette activité sur deux modèles de réplication du HIV : a) lymphocytes normaux infectés par le virus purifié et b) coculture des lymphocytes des malades du SIDA et de lymphocytes normaux. On a mesuré l'activité transcriptase inverse pendant 22 jours dans le surnageant de cultures cellulaires comme critère de prolifération virale. Le traitement avec le DAH a duré 72 heures de J₀ à J₃ de la manipulation (Figures 3, 4 et 5). […] Par contre, le DAH s'est montré plus toxique vis-à-vis des lymphocytes infectés par le virus du SIDA (Figures 6 et 7).
# Effet du traitement par le DAH durant trois jours sur la production de transcriptase inverse virale par une coculture de lymphocytes des malades du SIDA et de lymphocytes normaux.
# (●) absence de DAH (témoin) (o) concentration en DAH = 1 mM (□) concentration en DAH = 1,5 mM • . En abscisses : temps de croissance des cultures après inoculation du DAH (en jours) • . En ordonnées : activité transcriptase inverse (en CPM/million de cellules)
# Effet du traitement par le DAH durant trois jours, sur la production de transcriptase inverse virale d'une culture de lymphocytes infectés par du virus purifié. […]
structure (smiles),measurement,value
"N[C@@H](CC(=O)NO)C(=O)O [DAH, D-acide aspartique β-hydroxamate]",multiplication virale du HIV (activité transcriptase inverse),inhibe de manière totale

# Source: patent EP0470144B1, “BETA-HYDROXAMATE D-ASPARTIC ACID FOR TREATMENT OF VIRAL INFECTIONS AND TUMOURS” (priority 1989, dated 1990)
